In US7205298B2, “Substituted triazine kinase inhibitors” (Janssen Pharmaceutica N.V., priority 2002, dated 2007):
Where “and” joins values, the source holds several entries; their conditions need not be identical. Equal values may be shown once.

What was measured:
Protein Kinase A = target: T1, Protein Kinase A (Bos taurus, UniProt P00517); experiment: Kinase selectivity assay Protein Kinase A; type: biochemical, bovine
T1 construct: purified from bovine heart; purchased Upstate Biotech 14-114; host or cells: bovine heart (tissue)
Description: Assays to test compound inhibition of other kinases were preformed using methods that measure the amount of phosphorylation of a biotinylated peptide substrate. Biotinylated peptide substrates were selected from the literature as appropriate for the enzyme being evaluated. The general procedure used to assay for kinase activity is as follows: a kinase reaction mix was prepared in 50 mM Tris-HCl pH=8, 10 mM MgCl2, 0.1 mM Na3VO4, 1 mM DTT, 10 μM ATP, 0.25–1 μM biotinylated peptide substrate, 0.2–0.8 μCuries per well ^33P-γ-ATP (2000–3000 Ci/mmol). Assay conditions vary slightly for each protein kinase, for example, insulin receptor kinase requires 10 mM MnCl2 for activity and Calmodulin-dependent protein kinase requires calmodulin and 2 mM CaCl2. The reaction mixture was dispensed into the wells of a streptavidin coated Flashplate and 1 μL test compound in 100% DMSO was added to a 100 μL reaction volume resulting in a final concentration of 1% DMSO in the reaction. Enzyme was diluted in 50 mM Tris-HCl pH=8.0, 0.1% BSA and added to each well. The reaction was incubated for one hour at 30° C. in the presence of a test compound. […] The plate was read on a scintillation counter to determine ^33P-γ-ATP incorporated into the immobilized peptide substrate. […] A maximum and minimum signal for the assay was determined on each plate. […]

[1] = target: T2, VEGF-R (rat VEGF-R2 kinase domain) (Rattus norvegicus, UniProt O08775); experiment: VEGF-R Screening Assay; type: biochemical
T2 construct: 6xHis (polyhistidine) (N)
Description: A kinase reaction mixture was prepared containing 50 mM Tris-HCl pH=8, 10 mM MgCl2, 0.1 mM Na3PO4, 1 mM DTT, 10 μM ATP, 0.025 μM biotinylated peptide substrate (also referred to herein as PLC-1 biotinylated peptide substrate and PDGF receptor substrate, sequence provided in the peptide substrate table) and 0.8 μCuries per well ^33P-γ-ATP (2000–3000 Ci/mmol). 70 μL of the kinase reaction mixture was dispensed into the well of a streptavidin coated FlashPlate™ (Cat. # SMP103, NEN, Boston, Mass.). Then 1 μL of test compound stock in 100% DMSO was added to the wells resulting in a final concentration of 1% DMSO in the reaction with a 100 μL final reaction volume. Next, soluble rat VEGF tyrosine kinase containing an N-terminal 6XHIS tag was diluted in 50 mM Tris-HCl pH=8.0, 0.1% BSA at a concentration of 5 ng per μL and 30 μL (150 ng enzyme per test well) was added to each well to initiate the reaction. The reaction was incubated for one hour at 30° C. At the end of the 1-hour incubation, the reaction was terminated by aspirating the reaction mixture from the plate and washing the wells twice with PBS containing 100 mM EDTA. The PLC1 biotinylated peptide substrate became immobilized on the Flashplate™ and the incorporation of ^33P-γ-ATP was measured by reading the plate on a scintillation counter. Inhibition of the enzymatic activity of the VEGF-R was measured by observing a reduced amount of ^33P-γ-ATP incorporated into the immobilized peptide.
Assays to test compound inhibition of other kinases were preformed using methods that measure the amount of phosphorylation of a biotinylated peptide substrate. Biotinylated peptide substrates were selected from the literature as appropriate for the enzyme being evaluated. The general procedure used to assay for kinase activity is as follows: a kinase reaction mix was prepared in 50 mM Tris-HCl pH=8, 10 mM MgCl2, 0.1 mM Na3VO4, 1 mM DTT, 10 μM ATP, 0.25–1 μM biotinylated peptide substrate, 0.2–0.8 μCuries per well ^33P-γ-ATP (2000–3000 Ci/mmol). Assay conditions vary slightly for each protein kinase, for example, insulin receptor kinase requires 10 mM MnCl2 for activity and Calmodulin-dependent protein kinase requires calmodulin and 2 mM CaCl2. The reaction mixture was dispensed into the wells of a streptavidin coated Flashplate and 1 μL test compound in 100% DMSO was added to a 100 μL reaction volume resulting in a final concentration of 1% DMSO in the reaction. Enzyme was diluted in 50 mM Tris-HCl pH=8.0, 0.1% BSA and added to each well. The reaction was incubated for one hour at 30° C. in the presence of a test compound. After one hour the reaction mix was aspirated from the plate and the plate was washed with PBS containing 100 mM EDTA. The plate was read on a scintillation counter to determine ^33P-γ-ATP incorporated into the immobilized peptide substrate. Test compounds were assayed in duplicate at 8 concentrations (100 μM, 10 μM, 1 μM, 100 nM, 10 nM, 1 nM, 100 pM, 10 pM). A maximum and minimum signal for the assay was determined on each plate. […] Known inhibitor compounds appropriate for the kinase being assayed were also included on each plate.
The form of VEGF-R (vascular endothelial growth factor receptor-2) used was a fusion protein containing a polyhistidine tag at the N-terminus followed by amino acids 786–1343 of the rat VEGF-R2 kinase domain (GenBank Accession #U93306). The form of CDK1 (cyclin dependent kinase 1) used was isolated from insect cells expressing both the human CDK1 catalytic subunit and its positive regulatory subunit cyclin B (CDK1:cyclin B protein, New England Biolabs, Beverly, Mass., Cat. #6020). The form of CDK4 (cyclin dependent kinase 4) used contains amino acids 769 to 921 of the mouse […] protein found in the GST-retinoblastoma protein construct (Santa Cruz Biotechnology, Santa Cruz, Calif.; Cat. #SC-4112). The form of EGF-R1 (epidermal growth factor receptor 1) used was purified from human A431 cell membranes (Sigma, St. Louis, Mo., Cat.# E3641). […]

T2 sequence (O08775 786-1343): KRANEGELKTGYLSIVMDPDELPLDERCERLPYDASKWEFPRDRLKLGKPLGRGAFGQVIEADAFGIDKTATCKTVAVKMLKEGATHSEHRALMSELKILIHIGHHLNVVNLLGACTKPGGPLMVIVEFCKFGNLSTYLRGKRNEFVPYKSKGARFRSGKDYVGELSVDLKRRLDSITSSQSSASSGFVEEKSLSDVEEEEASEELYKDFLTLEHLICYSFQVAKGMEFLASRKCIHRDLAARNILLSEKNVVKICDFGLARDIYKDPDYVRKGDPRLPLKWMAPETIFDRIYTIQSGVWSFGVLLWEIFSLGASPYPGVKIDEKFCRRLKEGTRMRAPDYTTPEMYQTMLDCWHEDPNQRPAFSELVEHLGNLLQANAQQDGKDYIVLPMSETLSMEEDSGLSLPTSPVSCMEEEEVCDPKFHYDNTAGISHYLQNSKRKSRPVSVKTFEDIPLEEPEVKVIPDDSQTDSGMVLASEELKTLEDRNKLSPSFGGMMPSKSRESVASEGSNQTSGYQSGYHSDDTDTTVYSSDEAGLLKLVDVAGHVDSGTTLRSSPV

Row | Structure (SMILES) | IC50 (Protein Kinase A) | IC50 [1]
1 | OCCCNc1cncc(-c2ncnc(Nc3cccc(Cl)c3)n2)c1 [Compound 1, 3-((5-(4-((3-chlorophenyl)amino)-1,3,5-triazin-2-yl)-3-pyridinyl)amino)-1-propanol] | > 100000 nM | 2560 nM
2 | OCCCNc1cc(-c2ncnc(Nc3cccc(Cl)c3)n2)ccn1 [Compound 2, 3-((4-(4-((3-chlorophenyl)amino)-1,3,5-triazin-2-yl)-2-pyridinyl)amino)-1-propanol] | > 100000 nM | 2560 nM and 2570 nM
